Results on three molecules are retold here after ChEMBL document CHEMBL1201862, “PubChem BioAssay data set” (2004).

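Interpolation was linear, between the two tested concentrations surrounding the appropriate level; five concentrations were tested over 48 hours in 96-well plates. GI50: concentration for 50% inhibition of growth.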 The source made the active and inactive calls. No stated cut-off is given here; in the data, active = GI50 up to about 1.1 µM and inactive = higher. Where only a bound is given, the exact number is not on record here.

Among the test systems are HCT-15; PC-3; UACC-62; MDA-N; IGROV-1; SR; LOX IMVI; KM12; OVCAR-8; T47D; MDA-MB-231; NCI-H23; 786-0; OVCAR-4; SF-295; SN12C; SK-OV-3; OVCAR-3; A549; EKVX.
Holding throughout (assay): NCI-60 cell line screen, 48 h

For `O=C1c2cccnc2S(=O)(=O)N1c1ccc(Br)cc1`, the GI50 with HCT-15 was more than 100 µM; in the assay on PC-3, 72.4 µM (inactive); in the assay with UACC-62, > 100 µM (inactive); with MDA-N, > 100 µM (inactive); with IGROV-1, > 100 µM (inactive); in the assay with SR, 41.3 µM (inactive). In addition, the GI50 in the assay with LOX IMVI, in the assay with KM12, with OVCAR-8, in the assay on T47D, in the assay on MDA-MB-231 and with NCI-H23 was > 100 µM (inactive) throughout. In addition, the GI50 in the assay on 786-0, in the assay on OVCAR-4, with SF-295, in the assay with SN12C, in the assay on SK-OV-3 and in the assay on OVCAR-3 was > 100 µM (inactive) each time. Also, the GI50 in the assay on A549 and with EKVX was > 100 µM (inactive) in each case.

Take `Cc1cc2nc(C#N)c(N3CCN(c4ccc([N+](=O)[O-])cc4)CC3)nc2cc1C`: the GI50 in the assay on HCT-15 was more than 100 µM; in the assay on PC-3, > 100 µM (inactive); in the assay on UACC-62, > 79.1 µM (inactive); in the assay on MDA-N, > 79.3 µM (inactive); in the assay with IGROV-1, > 100 µM (inactive); in the assay on SR it was > 100 µM (inactive). Also, the GI50 with LOX IMVI is > 100 µM (inactive); with KM12, > 100 µM (inactive); in the assay with OVCAR-8, > 56.2 µM (inactive); with T47D it was 66.2 µM (inactive); with MDA-MB-231, > 100 µM (inactive); in the assay with NCI-H23 it was > 64.9 µM (inactive). Besides, the GI50 is 52.7 µM (inactive) in the assay with 786-0; 73.6 µM (inactive) in the assay with OVCAR-4; > 50.5 µM (inactive) in the assay on SF-295; > 92.7 µM (inactive) in the assay with SN12C; > 69.5 µM (inactive) in the assay with SK-OV-3; > 100 µM (inactive) with OVCAR-3. In addition, the GI50 with A549 and with EKVX was > 100 µM (inactive) throughout.

Consider `C#C/C=C\CCCCCCCCCCCCCC/C=C\CCCCC#CC(O)C#CCCCC/C=C\CCCCCC/C=C/C(O)C#C` (stereo not given), for which the GI50 was 22.5 µM in the assay on HCT-15; 19.1 µM (inactive) in the assay on PC-3; 11.8 µM (inactive) with UACC-62; 3.8 µM (inactive) in the assay with MDA-N; 13.6 µM (inactive) in the assay on IGROV-1; 14.1 µM (inactive) in the assay on SR. Besides, the GI50 in the assay with LOX IMVI was 2.55 µM (inactive); with KM12 it was 7.08 µM (inactive); in the assay with OVCAR-8 it was 23.3 µM (inactive); with T47D, 7.21 µM (inactive); in the assay with MDA-MB-231, 34.2 µM (inactive); in the assay on NCI-H23 it was 9.64 µM (inactive). The GI50 in the assay with 786-0 was 11.8 µM (inactive); with OVCAR-4, 6.38 µM (inactive); in the assay on SF-295, 17.7 µM (inactive); in the assay on SN12C, 24.2 µM (inactive); in the assay with SK-OV-3 it was > 75 µM (inactive); in the assay with OVCAR-3 it was 32.2 µM (inactive). In addition, the GI50 with A549 is 12.1 µM (inactive); in the assay with EKVX, 17 µM (inactive).
